Measured values from PubChem BioAssay (NCI).
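Protocol summary: plate cells (96-well), add compound at 5 concentrations, incubate 48 h, interpolate endpoints linearly. TGI: total growth inhibition.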

What was measured:
Experiment in all cases: NCI tumour cell line growth inhibition, 48 h
MDA-MB-231 breast = tested on: MDA-MB-231 breast
K-562 leukemia = tested on: K-562 leukemia
SNB-75 CNS = tested on: SNB-75 CNS
HL-60(TB) leukemia = tested on: HL-60(TB) leukemia
SNB-19 CNS = tested on: SNB-19 CNS
LOX IMVI melanoma = tested on: LOX IMVI melanoma
HCC-2998 colon = tested on: HCC-2998 colon
MOLT-4 leukemia = tested on: MOLT-4 leukemia
UO-31 renal = tested on: UO-31 renal
M14 melanoma = tested on: M14 melanoma
T-47D breast = tested on: T-47D breast
UACC-62 melanoma = tested on: UACC-62 melanoma
786-0 renal = tested on: 786-0 renal
CCRF-CEM leukemia = tested on: CCRF-CEM leukemia
MDA-MB-435 = tested on: MDA-MB-435
A549 NSCLC = tested on: A549 NSCLC
BT-549 breast = tested on: BT-549 breast
MCF7 breast = tested on: MCF7 breast
MDA-N = tested on: MDA-N
OVCAR-8 ovarian = tested on: OVCAR-8 ovarian
HOP-92 NSCLC = tested on: HOP-92 NSCLC
NCI/ADR-RES ovarian = tested on: NCI/ADR-RES ovarian
HCT-15 colon = tested on: HCT-15 colon
SR leukemia = tested on: SR leukemia
SK-MEL-2 melanoma = tested on: SK-MEL-2 melanoma
NCI-H460 lung = tested on: NCI-H460 lung
UACC-257 melanoma = tested on: UACC-257 melanoma
SF-295 CNS = tested on: SF-295 CNS
OVCAR-4 ovarian = tested on: OVCAR-4 ovarian
SK-MEL-5 melanoma = tested on: SK-MEL-5 melanoma
U251 CNS = tested on: U251 CNS
SN12C renal = tested on: SN12C renal
SK-MEL-28 melanoma = tested on: SK-MEL-28 melanoma
NCI-H522 lung = tested on: NCI-H522 lung
ACHN renal = tested on: ACHN renal
MALME-3M melanoma = tested on: MALME-3M melanoma
HT29 colon = tested on: HT29 colon
NCI-H23 lung = tested on: NCI-H23 lung
TK-10 renal = tested on: TK-10 renal
HCT-116 colon = tested on: HCT-116 colon
EKVX NSCLC = tested on: EKVX NSCLC
OVCAR-3 ovarian = tested on: OVCAR-3 ovarian
IGROV1 ovarian = tested on: IGROV1 ovarian
RXF 393 renal = tested on: RXF 393 renal
HS 578T breast = tested on: HS 578T breast
SF-268 CNS = tested on: SF-268 CNS
OVCAR-5 ovarian = tested on: OVCAR-5 ovarian
NCI-H226 lung = tested on: NCI-H226 lung
SK-OV-3 ovarian = tested on: SK-OV-3 ovarian
COLO 205 colon = tested on: COLO 205 colon
KM12 colon = tested on: KM12 colon
PC-3 prostate = tested on: PC-3 prostate
SW-620 colon = tested on: SW-620 colon
SF-539 CNS = tested on: SF-539 CNS
CAKI-1 renal = tested on: CAKI-1 renal
RPMI-8226 leukemia = tested on: RPMI-8226 leukemia
DU-145 prostate = tested on: DU-145 prostate
HOP-62 NSCLC = tested on: HOP-62 NSCLC
A498 renal = tested on: A498 renal

Measured: TGI

COc1ccc(C(C#N)NC23CC4CC(CC(C4)C2)C3)cc1 (stereo not given)
> 100 µM: MDA-MB-231 breast | K-562 leukemia | SNB-75 CNS | HL-60(TB) leukemia | SNB-19 CNS | LOX IMVI melanoma | HCC-2998 colon | MOLT-4 leukemia | UO-31 renal | M14 melanoma | T-47D breast | UACC-62 melanoma | 786-0 renal | CCRF-CEM leukemia | MDA-MB-435 | A549 NSCLC | BT-549 breast | MCF7 breast | MDA-N | OVCAR-8 ovarian | HOP-92 NSCLC | NCI/ADR-RES ovarian | HCT-15 colon | SR leukemia | SK-MEL-2 melanoma | NCI-H460 lung | UACC-257 melanoma | SF-295 CNS | OVCAR-4 ovarian | SK-MEL-5 melanoma | U251 CNS | SN12C renal | SK-MEL-28 melanoma | NCI-H522 lung | ACHN renal | MALME-3M melanoma | HT29 colon | NCI-H23 lung | TK-10 renal | HCT-116 colon | EKVX NSCLC | OVCAR-3 ovarian | IGROV1 ovarian | RXF 393 renal | HS 578T breast | SF-268 CNS | OVCAR-5 ovarian | NCI-H226 lung | SK-OV-3 ovarian | COLO 205 colon | KM12 colon | PC-3 prostate | SW-620 colon | SF-539 CNS | CAKI-1 renal | RPMI-8226 leukemia | DU-145 prostate | HOP-62 NSCLC

CSc1c(C(=O)Nc2ccccc2)c(N)n(N)c(=O)c1C#N
> 100 µM: MDA-MB-231 breast | K-562 leukemia | SNB-75 CNS | HL-60(TB) leukemia | SNB-19 CNS | LOX IMVI melanoma | HCC-2998 colon | MOLT-4 leukemia | UO-31 renal | M14 melanoma | T-47D breast | UACC-62 melanoma | 786-0 renal | CCRF-CEM leukemia | MDA-MB-435 | A549 NSCLC | A498 renal | BT-549 breast | MCF7 breast | MDA-N | OVCAR-8 ovarian | NCI/ADR-RES ovarian | HCT-15 colon | SR leukemia | SK-MEL-2 melanoma | NCI-H460 lung | UACC-257 melanoma | OVCAR-4 ovarian | SK-MEL-5 melanoma | U251 CNS | SN12C renal | SK-MEL-28 melanoma | NCI-H522 lung | MALME-3M melanoma | HT29 colon | NCI-H23 lung | TK-10 renal | HCT-116 colon | EKVX NSCLC | OVCAR-3 ovarian | IGROV1 ovarian | RXF 393 renal | HS 578T breast | SF-268 CNS | OVCAR-5 ovarian | NCI-H226 lung | SK-OV-3 ovarian | COLO 205 colon | KM12 colon | PC-3 prostate | SW-620 colon | SF-539 CNS | CAKI-1 renal | RPMI-8226 leukemia | DU-145 prostate

O=C1CS(=O)(=O)C(c2cccc(Oc3ccccc3)c2)N1c1ccc(Cl)cc1 (stereo not given)
35.5 µM: COLO 205 colon
73.4 µM: MDA-MB-435
68.9 µM: NCI-H522 lung
24.6 µM: UACC-62 melanoma
51.3 µM: EKVX NSCLC
45.4 µM: SR leukemia
60.5 µM: ACHN renal
39 µM: IGROV1 ovarian
61.4 µM: TK-10 renal
26.3 µM: SK-MEL-5 melanoma
29.1 µM: LOX IMVI melanoma
73.2 µM: MALME-3M melanoma
22.6 µM: HCT-116 colon
57.7 µM: SN12C renal
84.5 µM: PC-3 prostate
> 100 µM: MDA-MB-231 breast | SNB-75 CNS | HL-60(TB) leukemia | SNB-19 CNS | UO-31 renal | T-47D breast | CCRF-CEM leukemia | A549 NSCLC | NCI/ADR-RES ovarian | HCT-15 colon | SF-295 CNS | OVCAR-4 ovarian | SK-MEL-28 melanoma | HT29 colon | NCI-H23 lung | OVCAR-3 ovarian | HS 578T breast | SF-268 CNS | OVCAR-5 ovarian | SK-OV-3 ovarian | KM12 colon | SW-620 colon | DU-145 prostate | HOP-62 NSCLC
20.8 µM: HCC-2998 colon
36.5 µM: 786-0 renal
76.2 µM: M14 melanoma
68.3 µM: NCI-H226 lung
39.9 µM: SF-539 CNS
23.8 µM: HOP-92 NSCLC
35.8 µM: NCI-H460 lung
64.8 µM: CAKI-1 renal
44.3 µM: UACC-257 melanoma
43 µM: RXF 393 renal
63 µM: K-562 leukemia
90.1 µM: BT-549 breast
47.8 µM: OVCAR-8 ovarian
62.7 µM: MOLT-4 leukemia
31.9 µM: MCF7 breast | SK-MEL-2 melanoma
53 µM: MDA-N
56.1 µM: U251 CNS
